Active and inactive are the calls of the source. The calls are words filed in the database; no cut-off is given here.
Legend:
[1] = molecular target: Tyrosine-protein kinase Lck (Homo sapiens) (UniProt P06239); assay: Inhibition of Lck (unknown origin) at 0.1 uM relative to control; values are per cent of control
[2] = molecular target: cAMP-dependent protein kinase (PKA) (Homo sapiens) (UniProt P22694+P17612+P22612); assay: Inhibition of PKA (unknown origin) at 1 uM relative to control; values are per cent of control
[3] = tested on: 4T1; assay: Induction of cell cycle arrest in mouse 4T1 adherent cells assessed as accumulation at S phase at 1 uM measured after 72 hrs by PI staining based flow cytometry analysis (reference value: 12.5%); type: functional
[4] = molecular target: Angiopoietin-1 receptor (Homo sapiens) (UniProt Q02763); assay: Inhibition of Tie2 (unknown origin) at 0.1 uM relative to control; values are per cent of control
[5] = tested on: ID8; assay: Antitumor activity against mouse ID8 cells implanted in C57BL6 mouse assessed as inhibition of FAK phosphorylation at Y397 residue at 0.5 mg/ml administered as solution in 5% sucrose measured after 30 days by immunoblotting analysis; type: functional, cell-based; conditions: time 30.0 day
[6] = tested on: 4T1; assay: Induction of cell cycle arrest in mouse 4T1 cells assessed as accumulation at sub-diploid cells at 1 uM measured after 72 hrs by PI staining based flow cytometry analysis; type: functional
[7] = tested on: 4T1; assay: Induction of cell cycle arrest in mouse 4T1 adherent cells assessed as accumulation at G2/M phase at 1 uM measured after 72 hrs by PI staining based flow cytometry analysis (reference value: 7.9%); type: functional
[8] = molecular target: Activated CDC42 kinase 1 (Homo sapiens) (UniProt Q07912); assay: Inhibition of ACK1 (unknown origin) at 1 uM relative to control; values are per cent of control
[9] = molecular target: Rho-associated protein kinase 1 (Homo sapiens) (UniProt Q13464); assay: Inhibition of ROCK1 (unknown origin) at 0.1 uM relative to control; values are per cent of control
[10] = molecular target: Mast/stem cell growth factor receptor Kit (Homo sapiens) (UniProt P10721); assay: Inhibition of c-kit (unknown origin) at 1 uM relative to control; values are per cent of control
[11] = tested on: 4T1; assay: Antitumor activity against mouse 4T1 cells harbouring mCherry red fluorescent protein implanted in BALB/c mouse assessed as increase in apoptosis in tumor at 30 to 100 mg/kg, sc bid measured after 5 days by TUNEL staining based microscopic analysis; type: functional, organism-based; conditions: dose 30-100 mg/kg, time 5.0 day
[12] = molecular target: RAF proto-oncogene serine/threonine-protein kinase (Homo sapiens) (UniProt P04049); assay: Inhibition of c-RAF (unknown origin) at 1 uM relative to control; values are per cent of control
[13] = molecular target: Tyrosine-protein kinase JAK2 (Homo sapiens) (UniProt O60674); assay: Inhibition of JAK2 (unknown origin) at 0.1 uM relative to control; values are per cent of control
[14] = tested on: 4T1; assay: Effect on p130Cas phosphorylation in mouse 4T1 cultured as 3D spheroids at 0.1 to 1 uM incubated for 24 hrs by immunoblotting analysis; type: functional, cell-based; conditions: dose 0.1-1 µM
[15] = molecular target: Focal adhesion kinase 1 (Mus musculus) (UniProt P34152); assay: Inhibition of FAK phosphorylation at Tyr397 residue in mouse 4T1 cells harbouring mCherry red fluorescent protein at 0.1 to 1 uM incubated for 1 hr by immunoblotting analysis; type: cell-based; conditions: dose 0.1-1 µM
[16] = tested on: 4T1; assay: Induction of cell cycle arrest in mouse 4T1 adherent cells assessed as accumulation at G0/G1 phase at 1 uM measured after 72 hrs by PI staining based flow cytometry analysis (reference value: 81.3%); type: functional
[17] = molecular target: Proto-oncogene tyrosine-protein kinase Src (Homo sapiens) (UniProt P12931); assay: Inhibition of c-SRC (unknown origin) at 0.1 uM relative to control; values are per cent of control
[18] = tested on: 4T1; assay: Inhibition of colony formation in mouse 4T1 cells assessed as reduction in cell number at 0.4 to 1 uM measured after 4 days by phase contrast microscopy analysis; type: functional, cell-based; conditions: dose 0.4-1 µM, time 4.0 day
[19] = tested on: 4T1; assay: Effect on Src phosphorylation at Y416 residue in mouse 4T1 cultured as 3D spheroids at 0.1 to 1 uM incubated for 24 hrs by immunoblotting analysis; type: functional, cell-based; conditions: dose 0.1-1 µM
[20] = tested on: 4T1; assay: Induction of apoptosis in mouse 4T1 cells assessed as increase in cell membrane blebbing at 0.4 to 1 uM measured after 2 days by phase contrast microscopy analysis; type: functional, cell-based; conditions: dose 0.4-1 µM, time 2.0 day
[21] = molecular target: High affinity nerve growth factor receptor (Homo sapiens) (UniProt P04629); assay: Inhibition of TrkA (unknown origin) at 0.1 uM relative to control; values are per cent of control
[22] = tested on: 4T1; assay: Induction of apoptosis in mouse 4T1 adherent cells assessed as increase in cleaved caspase 3 expression at 0.4 uM incubated for 24 hrs by immunoblotting analysis; type: functional, cell-based
[23] = molecular target: Proto-oncogene tyrosine-protein kinase receptor Ret (Homo sapiens) (UniProt P07949); assay: Inhibition of Ret (unknown origin) at 1 uM relative to control; values are per cent of control
[24] = molecular target: Tyrosine-protein kinase ABL1 (Homo sapiens) (UniProt P00519); assay: Inhibition of Abl (unknown origin) at 1 uM relative to control; values are per cent of control
[25] = molecular target: Tyrosine-protein kinase Fyn (Homo sapiens) (UniProt P06241); assay: Inhibition of Fyn (unknown origin) at 1 uM relative to control; values are per cent of control
[26] = molecular target: Serine/threonine-protein kinase Nek6 (Homo sapiens) (UniProt Q9HC98); assay: Inhibition of NEK6 (unknown origin) at 0.1 uM relative to control; values are per cent of control
[27] = molecular target: Rho-associated protein kinase 1 (Homo sapiens) (UniProt Q13464); assay: Inhibition of ROCK1 (unknown origin) at 1 uM relative to control; values are per cent of control
[28] = molecular target: Serine/threonine-protein kinase Nek6 (Homo sapiens) (UniProt Q9HC98); assay: Inhibition of NEK6 (unknown origin) at 1 uM relative to control; values are per cent of control
[29] = tested on: 4T1; assay: Induction of apoptosis in mouse 4T1 adherent cells at 0.1 to 1 uM incubated for 24 to 48 hrs by PI staining based flow cytometry analysis; type: functional, cell-based; conditions: dose 0.1-1 µM, time 24-48 hrs
[30] = tested on: 4T1; assay: Effect on Src phosphorylation at Tyr416 residue in mouse 4T1 cells harbouring mCherry red fluorescent protein at 0.1 to 1 uM incubated for 1 hr by immunoblotting analysis; type: functional, cell-based; conditions: dose 0.1-1 µM

Chain of Serine/threonine-protein kinase Nek6 (Homo sapiens) (Q9HC98 whole entry): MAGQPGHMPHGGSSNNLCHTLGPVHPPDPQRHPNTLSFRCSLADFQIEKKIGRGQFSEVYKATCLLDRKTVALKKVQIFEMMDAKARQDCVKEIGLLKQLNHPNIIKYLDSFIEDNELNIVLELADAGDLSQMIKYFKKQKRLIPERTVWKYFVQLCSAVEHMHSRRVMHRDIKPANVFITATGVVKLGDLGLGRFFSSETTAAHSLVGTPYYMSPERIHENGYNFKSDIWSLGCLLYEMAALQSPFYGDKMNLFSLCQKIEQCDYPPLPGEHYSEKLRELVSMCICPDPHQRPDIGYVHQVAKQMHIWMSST
Chain of Rho-associated protein kinase 1 (Homo sapiens) (Q13464 2-1354 limits assumed): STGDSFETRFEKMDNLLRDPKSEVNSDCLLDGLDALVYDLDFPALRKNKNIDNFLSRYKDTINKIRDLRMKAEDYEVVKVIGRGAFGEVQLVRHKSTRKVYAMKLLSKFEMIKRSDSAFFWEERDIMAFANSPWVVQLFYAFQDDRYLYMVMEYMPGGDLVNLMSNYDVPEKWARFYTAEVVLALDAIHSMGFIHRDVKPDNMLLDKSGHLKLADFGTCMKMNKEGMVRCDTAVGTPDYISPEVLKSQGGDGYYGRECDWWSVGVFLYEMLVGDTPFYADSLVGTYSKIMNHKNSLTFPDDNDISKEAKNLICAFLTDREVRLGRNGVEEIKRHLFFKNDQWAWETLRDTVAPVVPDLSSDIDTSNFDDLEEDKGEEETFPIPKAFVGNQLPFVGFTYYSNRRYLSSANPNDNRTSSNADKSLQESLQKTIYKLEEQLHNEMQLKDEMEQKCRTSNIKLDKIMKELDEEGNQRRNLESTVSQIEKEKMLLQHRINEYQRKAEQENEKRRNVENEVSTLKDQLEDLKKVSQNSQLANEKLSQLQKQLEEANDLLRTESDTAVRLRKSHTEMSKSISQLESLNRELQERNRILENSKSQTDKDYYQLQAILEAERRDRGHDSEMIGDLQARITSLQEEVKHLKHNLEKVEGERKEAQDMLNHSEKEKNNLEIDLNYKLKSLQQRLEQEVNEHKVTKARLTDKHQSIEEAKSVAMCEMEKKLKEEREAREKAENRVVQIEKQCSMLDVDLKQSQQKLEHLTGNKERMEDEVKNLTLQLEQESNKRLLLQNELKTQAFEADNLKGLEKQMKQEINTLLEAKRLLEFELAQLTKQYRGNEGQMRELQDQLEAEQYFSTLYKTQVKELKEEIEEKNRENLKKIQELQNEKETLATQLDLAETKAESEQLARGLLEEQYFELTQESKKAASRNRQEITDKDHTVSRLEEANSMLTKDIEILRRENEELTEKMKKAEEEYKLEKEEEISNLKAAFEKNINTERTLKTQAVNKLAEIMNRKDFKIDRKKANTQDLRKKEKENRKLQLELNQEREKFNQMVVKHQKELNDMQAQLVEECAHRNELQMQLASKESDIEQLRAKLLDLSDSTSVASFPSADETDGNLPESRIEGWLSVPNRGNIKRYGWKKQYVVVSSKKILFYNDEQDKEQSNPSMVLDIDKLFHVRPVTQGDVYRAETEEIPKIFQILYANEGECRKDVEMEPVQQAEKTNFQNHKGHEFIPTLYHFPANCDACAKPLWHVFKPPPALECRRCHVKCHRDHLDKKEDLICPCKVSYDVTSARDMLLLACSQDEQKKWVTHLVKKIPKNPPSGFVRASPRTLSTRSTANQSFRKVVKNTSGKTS
Chain of Proto-oncogene tyrosine-protein kinase Src (Homo sapiens) (P12931 2-536 limits assumed): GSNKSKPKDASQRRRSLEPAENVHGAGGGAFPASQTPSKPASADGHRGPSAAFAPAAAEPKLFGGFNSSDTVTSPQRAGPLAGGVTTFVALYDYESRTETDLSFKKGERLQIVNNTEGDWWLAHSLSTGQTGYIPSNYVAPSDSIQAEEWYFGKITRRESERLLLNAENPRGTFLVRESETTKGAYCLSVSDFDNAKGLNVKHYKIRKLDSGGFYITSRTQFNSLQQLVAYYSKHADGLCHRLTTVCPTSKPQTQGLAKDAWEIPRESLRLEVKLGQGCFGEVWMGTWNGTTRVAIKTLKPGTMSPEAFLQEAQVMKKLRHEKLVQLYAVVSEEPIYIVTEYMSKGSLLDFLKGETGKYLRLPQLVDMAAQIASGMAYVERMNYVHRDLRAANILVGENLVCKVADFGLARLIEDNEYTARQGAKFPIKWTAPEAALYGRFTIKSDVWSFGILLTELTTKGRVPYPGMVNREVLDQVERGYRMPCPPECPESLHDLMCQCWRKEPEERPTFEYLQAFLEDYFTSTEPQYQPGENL
Chain of Angiopoietin-1 receptor (Homo sapiens) (Q02763 whole entry): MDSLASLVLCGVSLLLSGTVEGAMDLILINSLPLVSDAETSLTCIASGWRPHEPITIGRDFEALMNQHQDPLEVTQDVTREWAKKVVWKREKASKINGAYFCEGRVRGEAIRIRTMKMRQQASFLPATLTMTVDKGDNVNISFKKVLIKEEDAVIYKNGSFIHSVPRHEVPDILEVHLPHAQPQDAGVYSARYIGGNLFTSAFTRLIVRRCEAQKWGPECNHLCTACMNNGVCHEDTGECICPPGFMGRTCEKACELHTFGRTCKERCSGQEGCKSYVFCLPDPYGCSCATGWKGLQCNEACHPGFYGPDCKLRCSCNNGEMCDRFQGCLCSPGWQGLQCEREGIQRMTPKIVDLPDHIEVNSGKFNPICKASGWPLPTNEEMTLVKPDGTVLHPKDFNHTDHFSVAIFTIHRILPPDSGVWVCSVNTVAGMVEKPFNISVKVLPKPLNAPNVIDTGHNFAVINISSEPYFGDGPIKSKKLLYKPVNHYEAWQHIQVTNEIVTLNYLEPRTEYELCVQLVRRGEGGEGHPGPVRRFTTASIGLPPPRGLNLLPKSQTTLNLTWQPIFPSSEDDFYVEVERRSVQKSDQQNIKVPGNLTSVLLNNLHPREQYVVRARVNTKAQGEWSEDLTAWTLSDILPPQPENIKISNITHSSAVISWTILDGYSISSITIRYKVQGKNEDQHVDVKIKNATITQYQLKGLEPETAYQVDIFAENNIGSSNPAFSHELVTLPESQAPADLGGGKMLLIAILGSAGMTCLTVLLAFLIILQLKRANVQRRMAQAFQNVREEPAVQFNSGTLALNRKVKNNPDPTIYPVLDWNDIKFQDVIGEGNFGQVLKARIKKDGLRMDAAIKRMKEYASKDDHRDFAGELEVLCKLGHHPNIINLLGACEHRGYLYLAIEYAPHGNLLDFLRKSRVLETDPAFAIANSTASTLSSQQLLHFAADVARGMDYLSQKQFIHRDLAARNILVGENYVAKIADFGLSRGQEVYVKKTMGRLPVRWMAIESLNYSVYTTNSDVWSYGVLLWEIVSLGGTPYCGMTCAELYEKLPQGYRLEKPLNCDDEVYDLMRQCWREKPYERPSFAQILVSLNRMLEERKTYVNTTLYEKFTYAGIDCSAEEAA
Chain of Tyrosine-protein kinase Fyn (Homo sapiens) (P06241 2-537 limits assumed): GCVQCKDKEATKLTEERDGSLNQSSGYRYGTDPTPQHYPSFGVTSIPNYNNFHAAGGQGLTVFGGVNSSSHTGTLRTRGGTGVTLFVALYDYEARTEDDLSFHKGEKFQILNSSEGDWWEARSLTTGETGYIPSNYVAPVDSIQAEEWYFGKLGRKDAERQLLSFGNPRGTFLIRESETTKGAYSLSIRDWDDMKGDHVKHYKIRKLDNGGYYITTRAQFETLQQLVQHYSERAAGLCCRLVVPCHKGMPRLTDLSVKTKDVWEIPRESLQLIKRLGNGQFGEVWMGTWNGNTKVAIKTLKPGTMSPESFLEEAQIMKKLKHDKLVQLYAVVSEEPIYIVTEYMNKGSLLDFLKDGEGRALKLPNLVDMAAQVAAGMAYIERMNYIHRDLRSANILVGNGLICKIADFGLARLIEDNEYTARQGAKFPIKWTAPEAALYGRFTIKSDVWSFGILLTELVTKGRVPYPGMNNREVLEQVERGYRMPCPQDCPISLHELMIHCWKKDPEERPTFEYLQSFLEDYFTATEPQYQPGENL
Chain of Tyrosine-protein kinase Lck (Homo sapiens) (P06239 2-509 limits assumed): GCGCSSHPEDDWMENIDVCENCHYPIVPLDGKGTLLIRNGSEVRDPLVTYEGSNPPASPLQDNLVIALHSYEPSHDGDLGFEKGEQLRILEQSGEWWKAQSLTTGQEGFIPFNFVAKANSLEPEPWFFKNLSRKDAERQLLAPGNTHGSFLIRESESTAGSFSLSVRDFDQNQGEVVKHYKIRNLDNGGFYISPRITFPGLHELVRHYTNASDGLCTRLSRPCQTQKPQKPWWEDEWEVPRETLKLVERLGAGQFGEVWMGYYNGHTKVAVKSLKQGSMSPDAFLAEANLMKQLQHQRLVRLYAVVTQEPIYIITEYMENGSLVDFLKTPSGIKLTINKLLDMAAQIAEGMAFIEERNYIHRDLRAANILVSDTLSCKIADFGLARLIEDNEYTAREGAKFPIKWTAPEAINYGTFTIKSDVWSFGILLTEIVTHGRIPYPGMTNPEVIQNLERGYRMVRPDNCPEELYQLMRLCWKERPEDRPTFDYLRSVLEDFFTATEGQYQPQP
Chain of RAF proto-oncogene serine/threonine-protein kinase (Homo sapiens) (P04049 whole entry): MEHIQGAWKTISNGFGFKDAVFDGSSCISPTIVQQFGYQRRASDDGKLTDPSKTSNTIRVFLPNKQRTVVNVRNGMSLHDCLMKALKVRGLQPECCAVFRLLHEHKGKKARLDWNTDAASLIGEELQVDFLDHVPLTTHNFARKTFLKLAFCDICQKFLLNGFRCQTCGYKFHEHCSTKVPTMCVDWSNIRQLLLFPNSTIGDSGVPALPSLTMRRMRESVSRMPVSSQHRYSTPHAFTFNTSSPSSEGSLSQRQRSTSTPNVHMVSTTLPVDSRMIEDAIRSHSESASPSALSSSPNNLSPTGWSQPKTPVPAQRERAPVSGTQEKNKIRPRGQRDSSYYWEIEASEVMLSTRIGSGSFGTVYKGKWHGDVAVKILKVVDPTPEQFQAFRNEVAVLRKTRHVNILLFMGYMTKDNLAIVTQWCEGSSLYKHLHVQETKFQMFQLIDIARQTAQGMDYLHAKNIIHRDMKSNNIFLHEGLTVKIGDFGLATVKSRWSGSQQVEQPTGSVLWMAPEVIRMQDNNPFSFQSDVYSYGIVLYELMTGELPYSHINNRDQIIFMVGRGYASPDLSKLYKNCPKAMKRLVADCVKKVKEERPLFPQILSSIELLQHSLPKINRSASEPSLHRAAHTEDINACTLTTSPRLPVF

residual activity [1]: 76%
residual activity [2]: 111%
residual activity [4]: 97%
residual activity [8]: 16%
residual activity [9]: 96%
residual activity [10]: 122%
residual activity [12]: 150%
residual activity [13]: 116%
inhibition [15]: Active
residual activity [17]: 98%
residual activity [21]: 80%
residual activity [23]: 67%
residual activity [24]: 112%
residual activity [25]: 78%
residual activity [26]: 110%
residual activity [27]: 90%
residual activity [28]: 107%
Compound: CNC(=O)c1ccccc1Nc1cc(Nc2ccc(N3CCOCC3)cc2OC)ncc1C(F)(F)F [VS-4718]
Activity [3]: 10%
Activity [5]: Active
Activity [6]: Active
Activity [7]: 10.5%
Activity [11]: Active
Activity [14]: inactive
Activity [16]: 84.4%
inhibition [18]: Active
Activity [19]: inactive
Activity [20]: Active
Activity [22]: inactive
Activity [29]: inactive
Activity [30]: inactive

— ChEMBL document CHEMBL5715945 (Cancer Biol Ther, 2010)
